Results reported in patent US20230135608A1 (CURACLE CO., LTD., priority 2021, published 2023).
Structures can show the parent of a compound that is named as a salt.

What was measured:
[1] = system: TGF-β/Smad signaling and ECM expression; conditions: chemical inhibitor of NQO1 or HO-1 added to DMF; cited from earlier work
[2] = cited from earlier work
[3] = system: rat renal fibroblast cell line (NRK-49F); conditions: cited from earlier work
NRK-49F and RMC cells = conditions: cited from earlier work
[4] = system: streptozotocin (STZ, 150 mg/kg)-induced diabetic nephropathy mouse model; experiment: UUO renal fibrosis and streptozotocin-induced diabetic nephropathy mouse models; assay type: in vivo; conditions: UUO and STZ (150 mg/kg) mouse models
Method: As a result, it was confirmed that a dose of 25 mg/kg was effective for diabetic nephropathy. When the dose confirmed in the animal model is converted into HED (Human Equivalent Dose), it is calculated as follows. HED=Animal dose in mg/kg×{Animal weight in kg/Human weight in kg}×60 kg=25 mg/kg×0.08×60 kg=120 mg

[5] = system: RMCs and rat glomerular mesangial cells; conditions: cited from earlier work
[6] = system: UUO-induced renal fibrosis model; conditions: cited from earlier work
NRK-49F cells = conditions: DMF 40 μmol/1, semi-quantitative RT-PCR; cited from earlier work
AD-293 cells = conditions: cited from earlier work
Nrf2 = conditions: cited from earlier work

## COC1=CC(=O)c2c(c(COc3ccc([N+](=O)[O-])cc3)c(C)n2C)C1=O [ES936]
[1]
  reversal of the inhibitory effect of DMF on the TGF-β/Smad signaling and ECM expression: did not reverse

## COC(=O)/C=C/C(=O)O [MMF, monomethyl fumarate]
[2]; 24 hours after administration of the drug
  detection of MMF after administration: not detected 24 hours after administration
[2]; in vivo
  elimination half-life of MMF: about 1 hour
[2]; repeated administration
  accumulation of MMF in the body: does not accumulate in the body even after repeated administration

## COC(=O)/C=C/C(=O)OC [DMF, Dimethyl fumarate]
[3]; 24 hours of TGF-β treatment
  collagen type 1 induced by TGF-β (mRNA and protein): dose-dependently inhibit
[3]
  TGF-β-mediated expression of PAI-1, a-SMA, and fibronectin mRNA and protein: inhibited the TGF-β-mediated expression of PAI-1, a-SMA, and fibronectin mRNA and protein dose-dependently
NRK-49F and RMC cells
  Smad3 phosphorylation induced by TGF-β: inhibited
[4]
  dose effective for diabetic nephropathy: 25 mg/kg
[5]
  TGF-β-induced expression of PAI-1 protein: inhibitory effect
[6]
  expression of collagen type I, fibronectin, PAI-1 and α-SMA related to fibrosis: decreased the expression of collagen type I, fibronectin, PAI-1 and α-SMA
  expression of p-Smad3 increased by UUO: decreased the expression of p-Smad3
NRK-49F cells
  expression of NQO1 and HO-1: increased
AD-293 cells; AD-293 cells, PAI-1-Luc reporter
  activity of the PAI-1 promoter induced by TGF-β: inhibited
AD-293 cells; reporter with 9 copies of the Smad3 binding site
  activity of the (CAGA)9MLP-Luc promoter induced by TGF-β or ALK5: inhibited
Nrf2; NRK-49F cells
  Nrf2 protein expression: sharp increase
  nuclear accumulation of Nrf2: induced the nuclear accumulation of Nrf2 dose-dependently
Nrf2; RMC cells
  expression of Nrf2 protein: rapidly increased
Nrf2; after DMF treatment
  expression of p62: increased 6 h after the DMF treatment and up to 12 hours thereafter
